From patent publication US20070099876A1, “Target directed chemotherapy of tumours of the sexual organs” (priority 2003, published 2007)

Tested on: mammary carcinoma of the rat
Test: mammary tumours induced by benzidine in female Wistar rats
Type: in vivo
Conditions: low dosage
Description: For the development of active agents against tumours of the human sexual organs, an animal model closely similar to human tumours is needed, so that truly significant test results can be accomplished. The known “Huggins tumours” (C. Huggins et al., Rapid induction of mammary carcinoma in the rat and the influence of hormones, J. Exper. Med. 109, 25 (1959)) can be generated and combated easily, e.g. by endocrine manipulations and the usual chemotherapy (e.g. with endoxan®=cyclophosphamide monohydrate). In contrast, the tumours generated by benzidine in female Wistar rats require more time for induction and are (like human mammary tumour) only up to about 50% hormone dependent; they (like human mammary tumour) cannot be influenced effectively by chemotherapeutics and other methods of treatment in the art. Therefore, we have found the desired suitable animal model in Wistar rats with mammary tumours induced by benzidine.
20 female Wistar rats are treated with benzidine. The first benzidine dose is 150 mg/kg; then the doses are reduced to weekly 100 mg/kg. Then doses per 75 mg/kg follow within a gap of 14 days. There from a total dose of 1.225 g/kg results.
In total 29 mammary carcinomas are generated. […]
After the first tumour is generated (about 0.5 g) the benzidine application is stopped. […] The tumour size is determined tactually; experienced experimenters can determine it precisely to 0.1 g. […]

CN(C)/N=N/c1ccc2c(c1)CCC1C2CCC2(C)C(=O)CCC12 (stereo not shown) [Example 11, 3-(1,1-dimethyltriazenyl)-estrone]
effect against mammary carcinoma of the rat: very good effect at low dosage
